Results taken from PMC11254100 (Angewandte Chemie (International ed. in English), 2024).

Target: CAHEX:6HIS (Human immunodeficiency virus type 1 group M subtype B, UniProt P12493, A146C/E177C/M317A/W316A)
Details: BLI, CAHEX:6HIS immobilized on HIS-affinity probes

Substance: Lenacapvir
- koff: 2.978 ± 0.015 x10^−4 s^−1
- kon: 1.040 ± 0.007 x10^4 M^−1s^−1
